Source: patent US8377913B2, “Vitamin D receptor activators and methods of making” (AbbVie Inc., priority 2007, dated 2013)

What was measured:
[1] = test system: Human promyelocytic leukemia (HL60) cells; experiment: HL-60 Differentiation; assay type: cell-based; details: HL-60, 96 h, four days incubation, NBT, absorbance 570 nm
Protocol: Human promyelocytic leukemia (HL60) cells were obtained from the American Type Culture Collection (ATCC Cat. # CCL-240, Manassas, Va.). Cells were maintained in RPMI 1640 medium (commercially available from Invitrogen, Carlsbad, Calif.) containing 10% fetal bovine serum (commercially available from Invitrogen, Carlsbad, Calif.) at 37° C. with 5% CO2. Cells were passaged weekly and were not allowed to become >90% confluent. For the assay, cells were plated at 5×10^5 cells per well in 200 uL media. Test compounds were diluted in media in concentrations between 10^−6-10^−10 M and then added to the appropriate wells. Cells were then incubated for four days at 37° C. in 5% CO2 atmosphere. After incubation, media was aspirated from each well and 75 uL of NBT solution (nitroblue tetrazolinium: 200 ng/mL PMA (phorbol 12-myrystate 13-acetate) and 2 mg/ml NBT (nitroblue tetrazolium) in distilled H2O) was added to each well followed by further incubation for 2 hours at 37° C. Following incubation, 150 uL lysis buffer (225 mL dimethylformamide, 67.5 g SDS). PMA stock solution (2 mg/ml in ethanol) was added to each well and the plate was allowed to sit at room temperature for 4 hours. HL-60 cell differentiation was assayed, Effect of each compound on cell growth was examined as a function of time; absorbance in each well was measured at 570 nm.

[2] = test system: Renin mRNA in As4.1 cells; experiment: Renin mRNA in As4.1 cells transfected with pcDNA-hVDR (real-time RT-PCR); assay type: cell-based
Protocol: As4.1 cells (ATCC, Manassas, Va.) were cultured in Dulbecco's Modified Eagle Medium DMEM (commercially available from Invitrogen, Carlsbad, Calif.) with 10% fetal bovine serum at 37° C. in a humidified 5% CO2-95% air atmosphere. C3;ells were transfected with the pcDNA-hVDR plasmid (provided by Yan Chun Li, University of Chicago) by LIPOFECTAMINE™ 2000 (Invitrogen, Carlsbad, Calif.). siRNA was transfected with the pcDNA-hVDR plasmid by LIPOFECTAMINE™ 2000 according to the manufacturer's protocol. Twenty-four hours after transfection, cells were treated with test agents.
Real-time reverse transcription-PCR was performed with a MyiQ Real-time PCR Detection System (commercially available from BioRad, Hercules, Calif.). […] TaqMan™ probes that were 5′ labeled with the reporter 6-carboxyfluorescein (FAM) and 3′ labeled with the quencher tetramethylrhodamine (TAMRA) were used and the primer and probe sets were obtained from Applied Biosystems (Foster City, Calif.). Temperature conditions consisted of a step of 5 minutes at 95° C., followed by 45 cycles of 60° C. for 1 minute and 95° C. for 15 seconds. Data was collected during each extension phase of the PCR reaction and analyzed with the accompanying software package (BioRad, Hercules, Calif.). Threshold cycles were determined for each gene.

[3] = test system: PAI-1 mRNA in human coronary artery smooth muscle cells (CASMC); experiment: PAI-1 mRNA in CASMC; assay type: cell-based; details: Homo sapiens
Protocol: (§1) Primary culture of human coronary artery smooth muscle cells (CASMC) (commercially available from Cambrex, Walkersville, Md.) were grown in smooth muscle growth medium SmGM-2 (commercially available from Lonza Bioscience) containing 5.5 mM glucose, 5% FBS, 50 μg/ml gentamicin, 50 ng/ml amphotericin-B, 5 μg/ml insulin, 2 ng/ml human recombinant fibroblast growth factor (hFGF), and 0.5 ng/ml human recombinant epidermal growth factor (hEGF) at 37° C. in a humidified 5% CO2-95% air atmosphere. Cells were grown to >80% confluence and used within five passages.
(§2) Real-time reverse transcription-PCR was performed with a MyiQ Real-Time PCR Detection System (BioRad, Hercules, Calif.). Each sample has a final volume of 25 μl containing 100 ng of cDNA, […] each of the forward and reverse PCR primers and […] of the TaqMan™ probe for the gene of interest (Applied Biosystems, Foster City, Calif.). Temperature conditions consisted of a step of 5 minutes at 95° C., followed by 40 cycles of 60° C. for 1 minute and 95° C. for 15 seconds. Data was collected during each extension phase of the PCR reaction and analyzed with the software package (BioRad, Hercules, Calif.). Threshold cycles were determined for each gene. […]

[4] = test system: Thrombomodulin mRNA in human coronary artery smooth muscle cells (CASMC); experiment: Thrombomodulin mRNA in CASMC; assay type: cell-based; details: for EC50: Homo sapiens
Protocol: as §1, §2

[5] = test system: Thrombospondin mRNA in human coronary artery smooth muscle cells (CASMC); experiment: Thrombospondin mRNA in CASMC; assay type: cell-based; details: Homo sapiens
Protocol: as §1, §2

Male, C57BL6, mice = experiment: Normal Mouse Calcemia Model; assay type: in vivo; details: s.c. once daily for 3 days, dose giving 1 mg/dL change in total Ca
Protocol: Male, C57BL6, mice were obtained from Jackson Laboratories. The mice were habituated for four days while maintained on a normal diet (D10001, Research Diets Inc.). Treatment was initiated with vehicle (20% ethanol/30% propylene glycol/50% water, 0.05 mL, s.c.) or test agent administered over a three log dose range. The animals were dosed once daily for 3 days. Twenty-four hours after the last dose, animals were anesthetized with ketamine/xylazine (100/18 mg/kg) and bled by cardiac puncture for measurement of PTH and other end points.
Measurement of PTH and minerals: Calcium (Ca), serum phosphorus (Pi), creatinine and BUN were measured from serum using an Abbott Aeroset® (Abbott Laboratories, Abbott Park, Ill.). Blood ionized calcium (iCa) was determined using the i-STAT® system (Abbott Laboratories, East Windsor, N.J.). Serum PTH was measured using a mouse parathyroid hormone (PTH) EIA kit obtained from ALPCO/Immutopics, Inc. (Windham, N.H.). Selected data is shown is Table 6. The graphs in FIG. 4 give an indication of dose response. Notable is that Example 1 produced an approximately 30% reduction in PTH over at least a three log dose range without a concomitant elevation of serum calcium of greater than 1 mg/dL.
Data analysis: Mean±standard error of the mean was calculated for each group. One way ANOVA followed by a Dunnett's test was used to assess differences between vehicle and drug-treated groups. *p<0.05=significance.

[6] = test system: VDR (VDRE-luciferase-reporter construct); experiment: VDRE Reporter Gene Assay in HEK cells with stable expression of VDR; assay type: cell-based; details: Homo sapiens, HEK293, 24 hours
Protocol: Compound activity was also assessed by looking at a Vitamin D Response Element (VDRE) reporter gene assay, Human Embryonic Kidney cells (HEK cells) with a stable expression of VDR were cultured in 96-well plates at ˜4×10^5 cells/mL (100 μL/well) in DMEM medium containing 10% fetal calf serum. Cells were transfected with 0.2 μg per well of a VDRE-luciferase-reporter construct (from Y. Li, University of Chicago) and then treated with test agents at indicated concentrations for 24 hours. The luciferase activity was then measured following the manufacturer's instructions (Promega, Madison, Wis.).

[7] = target: T1, recombinant full-length human Vitamin D nuclear receptor (Homo sapiens, UniProt P11473); experiment: biochemical
T1 sequence (P11473 1-427): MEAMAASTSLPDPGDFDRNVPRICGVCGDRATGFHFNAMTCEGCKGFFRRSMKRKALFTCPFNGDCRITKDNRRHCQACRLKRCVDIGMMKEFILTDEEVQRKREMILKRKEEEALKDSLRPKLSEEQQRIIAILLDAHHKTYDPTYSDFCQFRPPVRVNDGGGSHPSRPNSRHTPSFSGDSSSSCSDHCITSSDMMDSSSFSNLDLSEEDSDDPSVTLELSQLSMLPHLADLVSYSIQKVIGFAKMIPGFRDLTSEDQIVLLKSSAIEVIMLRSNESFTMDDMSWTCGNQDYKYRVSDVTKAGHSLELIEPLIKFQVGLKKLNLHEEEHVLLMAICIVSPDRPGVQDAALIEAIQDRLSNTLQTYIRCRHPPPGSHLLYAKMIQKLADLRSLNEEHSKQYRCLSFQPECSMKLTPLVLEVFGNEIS
Protocol: In vitro binding of selected compounds according to the invention to VDR was assessed using the following procedure. […] Each test compound was then serially diluted in binding buffer to concentrations appropriate for the assay, as one skilled in the art can determine.
Final assay volume was 100 uL. The filled plate was incubated overnight at 4° C. with gentle shaking. After 18 hours of incubation, 20 uL of wheat germ agglutinin-coated yttrium silicate scintillation proximity assay (SPA) beads (commercially available from Amersham Biosciences, Piscataway, N.J.; Part # RPNQ0270) resuspended in binding buffer was added to each well (200 ug/well) and the plate was incubated at room temperature for 2 hours with gentle shaking.

Row | Structure (SMILES) | EC50 [1] [nM] | IC50 [2] [nM] | IC50 [3] [nM] | EC50 [4] [nM] | IC50 [5] [nM] | EC50 [6] [nM] | Thrombomodulin mRNA in CASMC EC50 [4] | IC50 [7] [nM] | 1 mg/dL Δ total Ca (Male, C57BL6, mice) [µg/kg]
1 | C=C1/C(=C\C=C2/CCC[C@]3(C)[C@@H]([C@H](C)CCCC(C)(C)O)CC[C@@H]23)C[C@@H](O)C[C@@H]1O [Calcitriol, 1,25-dihydroxyvitamin D3, reference compound] | 7 | 1.6 | 0.8 | 1.6 | 19.1 |  |  |  | 0.026
2 | C=C1[C@H](O)CC(=C/C=C2\CCC[C@]3(C)[C@@H]([C@H](C)CO)CC[C@@H]23)C[C@H]1O [Example 2, (1R,3R,7E,17β)-17-[(1S)-2-hydroxy-1-methylethyl]-2-methylene-9,10-secoestra-5,7-diene-1,3-diol] | 162 | 0.7 | 0.03 |  | 3.7 | 52.7 | inactive | 890 | 
3 | C=C1[C@H](O)CC(=C/C=C2\CCC[C@]3(C)[C@@H]([C@H](C)COC(=O)C(C)(C)CC)CC[C@@H]23)C[C@H]1O [Example 4, (2S)-2-[(1R,3R,7E,17β)-1,3-dihydroxy-2-methylene-9,10-secoestra-5,7-dien-17-yl]propyl 2,2-dimethylbutanoate] | 0.7 | 3.4 | 0.02 | 84.7 | 0.001 | 1.3 |  | 62.4 | 
4 | C=C1[C@H](O)CC(=C/C=C2\CCC[C@]3(C)[C@@H]([C@H](C)COC(=O)NC(C)(C)C)CC[C@@H]23)C[C@H]1O [Example 5, (2S)-2-[(1R,3R,7E,17β)-1,3-dihydroxy-2-methylene-9,10-secoestra-5,7-dien-17-yl]propyl tert-butylcarbamate] |  | 2.4 | 0.002 | 5.6 | 0.001 | 0.3 |  | 0.1 | 

More lines, main results first:

Row | EC50 [1] [nM] | IC50 [2] [nM] | IC50 [3] [nM] | EC50 [4] [nM] | IC50 [5] [nM] | EC50 [6] [nM] | Thrombomodulin mRNA in CASMC EC50 [4] | IC50 [7] [nM] | Structure (SMILES) | 1 mg/dL Δ total Ca (Male, C57BL6, mice) [µg/kg]
5 | 3.9 | 0.4 | 0.003 | 39.9 | 0.002 | 0.9 |  | 1330 | C=C1[C@H](O)CC(=C/C=C2\CCC[C@]3(C)[C@@H]([C@@H](C)COC(=O)C(C)(C)C)CC[C@@H]23)C[C@H]1O [Example 3, (2R)-2-[(1R,3R,7E,17β)-1,3-dihydroxy-2-methylene-9,10-secoestra-5,7-dien-17-yl]propyl pivalate] | 
6 | 16 | 0.8 | 0.5 | 1.5 | 0.2 | 5.9 |  | 14.6 | C[C@H](/C=C/[C@H](C)C(C)(C)O)[C@H]1CC[C@H]2/C(=C/C=C3C[C@@H](O)C[C@H](O)C3)CCC[C@]12C [Paricalcitol, paricalcitol, reference compound] | 0.286
